Reference: ChEMBL document CHEMBL5653631, “A Potent and Selective ULK1 Inhibitor Suppresses Autophagy and Sensitizes Cancer Cells to Nutrient Stress” (iScience, 2018)
Values belong to the compound of their own block, whether it stands above or below them.

How the values were obtained:
[1] = molecular target: [Pyruvate dehydrogenase (acetyl-transferring)] kinase isozyme 4, mitochondrial (Homo sapiens) (UniProt Q16654); assay: Inhibition of human recombinant PDHK4 at 500 nM in presence of ATP by radiometric assay relative to control
[2] = molecular target: Epidermal growth factor receptor (Homo sapiens) (UniProt P00533); assay: Inhibition of human recombinant EGFR at 500 nM related to control ULK1
[3] = molecular target: T1, Mitogen-activated protein kinase 13 (Homo sapiens) (UniProt O15264); assay: Inhibition of human recombinant p38delta at 15 nM in presence of ATP by radiometric assay relative to control
T1 sequence (whole entry): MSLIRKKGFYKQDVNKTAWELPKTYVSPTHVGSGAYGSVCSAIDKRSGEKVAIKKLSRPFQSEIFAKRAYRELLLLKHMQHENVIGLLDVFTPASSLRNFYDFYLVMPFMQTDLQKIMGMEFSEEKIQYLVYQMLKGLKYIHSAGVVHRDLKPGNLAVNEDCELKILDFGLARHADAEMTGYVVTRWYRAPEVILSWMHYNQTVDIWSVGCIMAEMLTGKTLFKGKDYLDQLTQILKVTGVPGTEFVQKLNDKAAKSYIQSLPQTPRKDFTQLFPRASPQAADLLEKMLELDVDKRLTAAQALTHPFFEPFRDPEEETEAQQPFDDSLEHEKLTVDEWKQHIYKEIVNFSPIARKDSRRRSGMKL

[4] = molecular target: T2, Serine/threonine-protein kinase TAO2 (Homo sapiens) (UniProt Q9UL54); assay: Inhibition of human recombinant TAO2 at 40 nM related to control ULK1
T2 sequence (whole entry): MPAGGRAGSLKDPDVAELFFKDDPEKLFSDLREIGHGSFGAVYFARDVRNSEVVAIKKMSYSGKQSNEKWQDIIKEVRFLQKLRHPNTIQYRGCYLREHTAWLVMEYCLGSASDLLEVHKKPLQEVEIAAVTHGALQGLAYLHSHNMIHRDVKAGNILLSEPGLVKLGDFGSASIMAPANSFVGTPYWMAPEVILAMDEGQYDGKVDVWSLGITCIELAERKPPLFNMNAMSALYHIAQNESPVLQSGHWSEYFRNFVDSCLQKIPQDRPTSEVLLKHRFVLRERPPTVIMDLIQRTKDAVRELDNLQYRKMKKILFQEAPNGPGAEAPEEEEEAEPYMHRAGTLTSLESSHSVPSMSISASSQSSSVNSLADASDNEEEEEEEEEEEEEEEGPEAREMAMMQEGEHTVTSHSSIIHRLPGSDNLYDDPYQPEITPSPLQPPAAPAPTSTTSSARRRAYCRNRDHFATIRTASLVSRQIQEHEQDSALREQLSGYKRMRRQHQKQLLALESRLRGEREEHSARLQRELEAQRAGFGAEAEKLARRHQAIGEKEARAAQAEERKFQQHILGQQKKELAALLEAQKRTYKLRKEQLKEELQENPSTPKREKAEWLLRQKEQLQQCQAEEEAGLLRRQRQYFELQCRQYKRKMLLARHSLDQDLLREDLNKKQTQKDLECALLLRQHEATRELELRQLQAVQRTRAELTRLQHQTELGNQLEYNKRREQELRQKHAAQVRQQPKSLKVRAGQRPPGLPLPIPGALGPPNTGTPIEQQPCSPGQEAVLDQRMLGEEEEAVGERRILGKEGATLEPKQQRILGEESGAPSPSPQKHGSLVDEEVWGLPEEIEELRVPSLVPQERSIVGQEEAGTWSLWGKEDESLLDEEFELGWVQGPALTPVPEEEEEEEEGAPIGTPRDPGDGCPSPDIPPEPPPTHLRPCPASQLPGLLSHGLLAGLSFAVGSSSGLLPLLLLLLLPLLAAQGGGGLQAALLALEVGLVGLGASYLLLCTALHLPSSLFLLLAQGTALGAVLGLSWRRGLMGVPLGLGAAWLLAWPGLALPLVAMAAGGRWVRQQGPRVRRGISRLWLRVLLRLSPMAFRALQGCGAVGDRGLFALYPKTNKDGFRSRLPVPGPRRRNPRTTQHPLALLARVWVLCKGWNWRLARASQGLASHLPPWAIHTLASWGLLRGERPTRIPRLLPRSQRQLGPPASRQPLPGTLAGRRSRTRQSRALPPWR

[5] = molecular target: Serine/threonine-protein kinase WNK2 (Homo sapiens) (UniProt Q9Y3S1); assay: Inhibition of human recombinant Wnk2 at 40 nM related to control ULK1
[6] = molecular target: T3, Myotonin-protein kinase (Homo sapiens) (UniProt Q09013); assay: Inhibition of human recombinant DMPK1 at 40 nM related to control ULK1
T3 sequence (whole entry): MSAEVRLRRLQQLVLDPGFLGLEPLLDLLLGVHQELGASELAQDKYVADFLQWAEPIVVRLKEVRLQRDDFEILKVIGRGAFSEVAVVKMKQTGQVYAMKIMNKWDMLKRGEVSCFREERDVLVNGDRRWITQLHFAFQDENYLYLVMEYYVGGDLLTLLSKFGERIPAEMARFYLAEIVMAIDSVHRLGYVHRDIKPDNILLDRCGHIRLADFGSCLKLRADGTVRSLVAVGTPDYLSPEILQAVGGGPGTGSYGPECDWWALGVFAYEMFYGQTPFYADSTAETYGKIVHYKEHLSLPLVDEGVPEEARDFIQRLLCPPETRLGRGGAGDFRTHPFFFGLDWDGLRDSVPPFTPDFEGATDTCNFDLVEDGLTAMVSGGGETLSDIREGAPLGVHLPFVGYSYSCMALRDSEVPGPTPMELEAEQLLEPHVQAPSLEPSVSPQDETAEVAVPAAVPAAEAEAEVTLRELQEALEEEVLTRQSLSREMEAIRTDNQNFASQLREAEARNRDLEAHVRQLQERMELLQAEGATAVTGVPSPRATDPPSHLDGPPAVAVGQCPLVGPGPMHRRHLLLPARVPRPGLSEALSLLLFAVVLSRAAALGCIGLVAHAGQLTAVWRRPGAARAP

[7] = molecular target: T4, Serine/threonine-protein kinase Sgk1 (Homo sapiens) (UniProt O00141); assay: Inhibition of human recombinant SGK1 at 40 nM in presence of ATP by radiometric assay relative to control
T4 sequence (whole entry): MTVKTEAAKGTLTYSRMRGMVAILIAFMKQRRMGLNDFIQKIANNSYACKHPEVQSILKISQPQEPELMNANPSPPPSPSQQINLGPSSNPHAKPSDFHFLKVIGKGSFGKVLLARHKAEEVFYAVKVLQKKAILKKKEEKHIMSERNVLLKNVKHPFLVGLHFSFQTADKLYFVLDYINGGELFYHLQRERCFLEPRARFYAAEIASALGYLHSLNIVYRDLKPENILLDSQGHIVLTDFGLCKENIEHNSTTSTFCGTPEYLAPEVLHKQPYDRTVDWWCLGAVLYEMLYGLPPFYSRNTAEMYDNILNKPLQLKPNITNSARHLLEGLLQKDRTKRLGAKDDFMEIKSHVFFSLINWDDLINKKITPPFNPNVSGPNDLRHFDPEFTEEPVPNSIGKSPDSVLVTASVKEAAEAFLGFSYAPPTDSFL

Epidermal growth factor receptor (Homo sapiens), sequence (P00533 whole entry): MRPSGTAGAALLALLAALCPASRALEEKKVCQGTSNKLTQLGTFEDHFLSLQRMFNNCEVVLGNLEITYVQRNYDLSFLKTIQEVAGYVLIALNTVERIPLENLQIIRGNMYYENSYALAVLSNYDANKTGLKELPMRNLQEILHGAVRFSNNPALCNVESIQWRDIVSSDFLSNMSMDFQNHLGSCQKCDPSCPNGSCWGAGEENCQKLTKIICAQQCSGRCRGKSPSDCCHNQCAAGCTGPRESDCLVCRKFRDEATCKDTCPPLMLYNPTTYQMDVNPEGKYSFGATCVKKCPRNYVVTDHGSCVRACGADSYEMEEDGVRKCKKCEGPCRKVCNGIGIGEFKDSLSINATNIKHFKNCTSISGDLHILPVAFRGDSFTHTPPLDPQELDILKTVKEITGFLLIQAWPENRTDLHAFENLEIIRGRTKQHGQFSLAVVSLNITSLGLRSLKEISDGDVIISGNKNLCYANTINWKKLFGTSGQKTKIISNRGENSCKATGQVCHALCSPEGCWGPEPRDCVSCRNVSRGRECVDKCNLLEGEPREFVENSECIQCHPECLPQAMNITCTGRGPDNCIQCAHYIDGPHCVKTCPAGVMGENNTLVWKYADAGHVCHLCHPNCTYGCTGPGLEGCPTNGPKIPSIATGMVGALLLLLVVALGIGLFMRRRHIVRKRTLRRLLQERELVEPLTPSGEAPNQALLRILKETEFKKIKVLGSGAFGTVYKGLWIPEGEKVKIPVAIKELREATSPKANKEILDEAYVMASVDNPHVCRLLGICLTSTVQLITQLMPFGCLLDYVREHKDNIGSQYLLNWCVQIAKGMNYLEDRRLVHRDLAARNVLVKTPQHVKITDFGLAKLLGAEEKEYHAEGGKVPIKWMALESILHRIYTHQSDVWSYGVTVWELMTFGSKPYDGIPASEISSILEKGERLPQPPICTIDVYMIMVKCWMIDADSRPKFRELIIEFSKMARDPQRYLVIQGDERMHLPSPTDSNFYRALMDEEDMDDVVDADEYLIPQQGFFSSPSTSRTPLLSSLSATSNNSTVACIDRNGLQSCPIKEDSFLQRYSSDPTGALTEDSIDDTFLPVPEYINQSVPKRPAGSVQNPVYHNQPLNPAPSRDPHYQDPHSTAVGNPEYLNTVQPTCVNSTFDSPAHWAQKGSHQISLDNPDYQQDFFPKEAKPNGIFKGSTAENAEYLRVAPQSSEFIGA
Serine/threonine-protein kinase WNK2 (Homo sapiens), sequence (Q9Y3S1 whole entry): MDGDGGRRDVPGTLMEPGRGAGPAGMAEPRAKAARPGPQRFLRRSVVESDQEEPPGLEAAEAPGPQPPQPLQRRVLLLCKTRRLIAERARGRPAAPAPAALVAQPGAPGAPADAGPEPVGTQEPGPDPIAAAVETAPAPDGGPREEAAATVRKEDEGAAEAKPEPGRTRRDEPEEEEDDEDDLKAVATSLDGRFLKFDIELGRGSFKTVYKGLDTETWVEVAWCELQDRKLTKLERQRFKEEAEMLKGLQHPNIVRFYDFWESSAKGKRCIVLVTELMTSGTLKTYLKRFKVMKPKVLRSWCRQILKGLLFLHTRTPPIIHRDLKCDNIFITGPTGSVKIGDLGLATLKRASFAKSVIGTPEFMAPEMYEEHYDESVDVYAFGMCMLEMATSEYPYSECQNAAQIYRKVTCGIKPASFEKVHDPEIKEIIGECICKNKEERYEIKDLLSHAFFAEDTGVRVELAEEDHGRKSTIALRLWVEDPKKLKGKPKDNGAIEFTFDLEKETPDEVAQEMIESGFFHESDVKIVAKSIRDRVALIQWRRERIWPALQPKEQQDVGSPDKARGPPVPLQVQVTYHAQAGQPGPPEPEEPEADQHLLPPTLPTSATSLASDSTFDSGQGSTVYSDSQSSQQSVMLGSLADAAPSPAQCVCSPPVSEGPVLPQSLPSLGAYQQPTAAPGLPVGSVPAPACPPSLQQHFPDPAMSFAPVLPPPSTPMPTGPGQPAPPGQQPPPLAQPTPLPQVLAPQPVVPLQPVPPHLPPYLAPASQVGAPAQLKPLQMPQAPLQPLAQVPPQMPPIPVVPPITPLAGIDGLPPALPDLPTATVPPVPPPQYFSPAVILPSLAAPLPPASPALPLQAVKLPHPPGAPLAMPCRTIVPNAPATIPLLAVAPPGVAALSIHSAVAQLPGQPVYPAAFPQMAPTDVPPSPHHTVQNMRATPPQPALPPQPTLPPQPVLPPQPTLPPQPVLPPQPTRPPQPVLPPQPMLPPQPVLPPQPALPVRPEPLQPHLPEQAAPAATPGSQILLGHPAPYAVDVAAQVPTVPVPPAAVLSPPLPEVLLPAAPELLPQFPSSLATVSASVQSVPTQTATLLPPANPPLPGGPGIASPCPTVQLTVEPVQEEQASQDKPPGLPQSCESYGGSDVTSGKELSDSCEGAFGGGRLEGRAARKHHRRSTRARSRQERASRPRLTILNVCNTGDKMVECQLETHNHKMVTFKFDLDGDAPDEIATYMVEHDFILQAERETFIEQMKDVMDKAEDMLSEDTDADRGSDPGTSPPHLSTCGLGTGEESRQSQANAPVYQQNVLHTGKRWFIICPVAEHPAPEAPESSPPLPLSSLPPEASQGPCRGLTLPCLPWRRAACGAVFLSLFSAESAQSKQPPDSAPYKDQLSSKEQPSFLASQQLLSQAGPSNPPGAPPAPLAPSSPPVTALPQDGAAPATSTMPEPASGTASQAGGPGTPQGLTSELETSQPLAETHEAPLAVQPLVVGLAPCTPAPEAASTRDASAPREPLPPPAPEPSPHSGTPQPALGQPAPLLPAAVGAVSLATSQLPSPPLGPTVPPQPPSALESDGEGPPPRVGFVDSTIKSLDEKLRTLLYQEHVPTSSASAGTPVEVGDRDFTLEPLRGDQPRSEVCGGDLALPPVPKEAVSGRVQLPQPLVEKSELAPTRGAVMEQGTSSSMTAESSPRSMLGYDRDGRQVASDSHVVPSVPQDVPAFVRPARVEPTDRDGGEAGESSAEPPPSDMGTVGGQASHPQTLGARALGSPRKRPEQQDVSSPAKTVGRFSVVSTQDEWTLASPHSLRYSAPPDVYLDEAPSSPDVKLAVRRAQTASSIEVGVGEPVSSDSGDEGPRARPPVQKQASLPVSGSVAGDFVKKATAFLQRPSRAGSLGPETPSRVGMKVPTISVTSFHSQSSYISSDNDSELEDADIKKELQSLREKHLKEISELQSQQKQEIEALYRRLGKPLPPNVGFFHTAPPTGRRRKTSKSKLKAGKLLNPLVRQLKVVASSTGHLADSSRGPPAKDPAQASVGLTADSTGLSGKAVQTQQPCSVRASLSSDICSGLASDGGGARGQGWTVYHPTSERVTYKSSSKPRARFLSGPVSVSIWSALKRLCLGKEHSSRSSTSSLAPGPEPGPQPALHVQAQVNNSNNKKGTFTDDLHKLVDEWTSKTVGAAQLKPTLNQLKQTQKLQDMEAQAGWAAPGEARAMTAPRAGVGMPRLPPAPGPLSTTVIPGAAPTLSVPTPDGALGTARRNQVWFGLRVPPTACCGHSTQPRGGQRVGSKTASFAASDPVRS
[Pyruvate dehydrogenase (acetyl-transferring)] kinase isozyme 4, mitochondrial (Homo sapiens), sequence (Q16654 whole entry, looked up): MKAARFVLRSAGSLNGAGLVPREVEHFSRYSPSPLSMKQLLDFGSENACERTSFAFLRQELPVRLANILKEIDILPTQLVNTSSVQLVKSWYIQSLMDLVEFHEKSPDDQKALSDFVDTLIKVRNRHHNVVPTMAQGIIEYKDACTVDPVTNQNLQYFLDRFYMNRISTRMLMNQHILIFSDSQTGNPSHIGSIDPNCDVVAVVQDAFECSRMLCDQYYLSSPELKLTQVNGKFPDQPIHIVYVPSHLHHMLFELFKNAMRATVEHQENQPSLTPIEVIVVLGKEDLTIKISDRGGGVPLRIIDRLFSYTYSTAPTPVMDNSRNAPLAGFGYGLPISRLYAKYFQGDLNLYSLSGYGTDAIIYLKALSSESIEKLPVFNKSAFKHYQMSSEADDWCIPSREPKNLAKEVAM

- inhibition [1]: 5%
- fold change (FC) [2]: 0.04
Structure (SMILES): CNC(=O)c1ccccc1Oc1nc(Nc2cc(OC)c(OC)c(OC)c2)ncc1Br

- inhibition [3]: 6%
Structure (SMILES): CC(C)[C@H](NC(=O)c1cc(-c2cnn3cc(-c4ccc(OCCN5CCCCC5)cc4)cnc23)cs1)C(F)(F)F

- fold change (FC) [4]: 0.04
- fold change (FC) [5]: 0.04
- fold change (FC) [6]: 0.07
- inhibition [7]: 7%
Structure (SMILES): O=C(N[C@@H](C1CC1)C(F)(F)F)c1cc(-c2cnn3cc(-c4ccc(F)cc4)cnc23)cs1
